# From the supplement of paper PMC10307832
# Legend:
# Assay in all cases: relative viability (nuclei count vs DMSO), 5 days (fraction); higher = more cells survive
# NCI-H1563 = tested on: NCI-H1563
# Procedure, shortened: (§1)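 The day after seeding in 1536-well plates, lung cancer cell lines were treated by pin tool with a single drug, or with a fixed anchor-drug dose together with five library-drug doses (not always all listed) in √10 steps. After 5 days, a combined fix-and-stain solution (final 0.05% Triton X-100, 1% formaldehyde, 1 ug/ml Hoechst) was added. Nuclei counted on 4× images gave relative viability as treated counts over vehicle counts, reported as the median of duplicate plates.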
# SK-LU-1 = tested on: SK-LU-1
# Procedure, shortened: as §1
# NCI-H2170 = tested on: NCI-H2170
# Procedure, shortened: as §1
# NCI-H1915 = tested on: NCI-H1915
# Procedure, shortened: as §1
# NCI-H1793 = tested on: NCI-H1793
# Procedure, shortened: as §1
# NCI-H441 = tested on: NCI-H441
# Procedure, shortened: as §1
# NCI-H23 = tested on: NCI-H23
# Procedure, shortened: as §1
# NCI-H1944 = tested on: NCI-H1944
# Procedure, shortened: as §1
# HARA = tested on: HARA
# Procedure, shortened: as §1
# NCI-H1755 = tested on: NCI-H1755
# Procedure, shortened: as §1
# NCI-H650 = tested on: NCI-H650
# Procedure, shortened: as §1
# A-427 = tested on: A-427
# Procedure, shortened: as §1
# NCI-H322M = tested on: NCI-H322M
# Procedure, shortened: as §1
# LCLC-97TM1 = tested on: LCLC-97TM1
# Procedure, shortened: as §1
# PC-3 [JPC-3] = tested on: PC-3 [JPC-3]
# Procedure, shortened: as §1
# LXF-289 = tested on: LXF-289
# Procedure, shortened: as §1
# NCI-H460 = tested on: NCI-H460
# Procedure, shortened: as §1
# NCI-H2023 = tested on: NCI-H2023
# Procedure, shortened: as §1
# LU99A = tested on: LU99A
# Procedure, shortened: as §1
# BEN = tested on: BEN
# Procedure, shortened: as §1
# NCI-H1395 = tested on: NCI-H1395
# Procedure, shortened: as §1
# NCI-H2126 = tested on: NCI-H2126
# Procedure, shortened: as §1
# NCI-H1666 = tested on: NCI-H1666
# Procedure, shortened: as §1
# LOU-NH91 = tested on: LOU-NH91
# Procedure, shortened: as §1
smiles,measurement,setting,value
CCCCCCCCCCCC1=C(O)C(=O)C=C(O)C1=O [Embelin] + Cc1nc(NC(=O)N2CCC[C@H]2C(N)=O)sc1-c1ccnc(C(C)(C)C(F)(F)F)c1 [Alpelisib] (partner 2 µM),relative viability,NCI-H1563; first compound 0.08 µM,0.845
same,relative viability,NCI-H1563; first compound 0.8 µM,0.978
same,relative viability,NCI-H1563; first compound 2.53 µM,0.856
same,relative viability,NCI-H1563; first compound 8 µM,0.913
same,relative viability,SK-LU-1; first compound 0.08 µM,1.29
same,relative viability,SK-LU-1; first compound 0.8 µM,1.31
same,relative viability,SK-LU-1; first compound 2.53 µM,1.37
same,relative viability,SK-LU-1; first compound 8 µM,0.904
same,relative viability,NCI-H2170; first compound 0.08 µM,0.856
same,relative viability,NCI-H2170; first compound 0.8 µM,0.853
same,relative viability,NCI-H2170; first compound 2.53 µM,0.92
same,relative viability,NCI-H2170; first compound 8 µM,0.777
same,relative viability,NCI-H1915; first compound 0.08 µM,1.12
same,relative viability,NCI-H1915; first compound 0.8 µM,1.15
same,relative viability,NCI-H1915; first compound 2.53 µM,1.11
same,relative viability,NCI-H1915; first compound 8 µM,1.08
same,relative viability,NCI-H1793; first compound 0.08 µM,0.752
same,relative viability,NCI-H1793; first compound 0.8 µM,0.972
same,relative viability,NCI-H1793; first compound 2.53 µM,0.794
same,relative viability,NCI-H1793; first compound 8 µM,0.728
same,relative viability,NCI-H441; first compound 0.08 µM,0.85
same,relative viability,NCI-H441; first compound 2.53 µM,0.933
same,relative viability,NCI-H441; first compound 8 µM,0.847
same,relative viability,NCI-H23; first compound 0.08 µM,0.606
same,relative viability,NCI-H23; first compound 0.8 µM,0.901
same,relative viability,NCI-H23; first compound 2.53 µM,0.844
same,relative viability,NCI-H23; first compound 8 µM,0.74
same,relative viability,NCI-H1944; first compound 0.08 µM,0.818
same,relative viability,NCI-H1944; first compound 0.8 µM,0.925
same,relative viability,NCI-H1944; first compound 2.53 µM,0.875
same,relative viability,NCI-H1944; first compound 8 µM,0.828
same,relative viability,HARA; first compound 0.08 µM,0.848
same,relative viability,HARA; first compound 0.8 µM,0.887
same,relative viability,HARA; first compound 2.53 µM,0.989
same,relative viability,HARA; first compound 8 µM,0.702
same,relative viability,NCI-H1755; first compound 0.08 µM,0.906
same,relative viability,NCI-H1755; first compound 0.8 µM,0.966
same,relative viability,NCI-H1755; first compound 2.53 µM,0.994
same,relative viability,NCI-H1755; first compound 8 µM,0.934
same,relative viability,NCI-H650; first compound 0.08 µM,1.14
same,relative viability,NCI-H650; first compound 0.8 µM,1.26
same,relative viability,NCI-H650; first compound 2.53 µM,1.02
same,relative viability,NCI-H650; first compound 8 µM,1.06
same,relative viability,A-427; first compound 0.08 µM,1.1
same,relative viability,A-427; first compound 0.8 µM,1.13
same,relative viability,A-427; first compound 2.53 µM,1.12
same,relative viability,A-427; first compound 8 µM,1.07
same,relative viability,NCI-H322M; first compound 0.08 µM,0.833
same,relative viability,NCI-H322M; first compound 0.8 µM,0.801
same,relative viability,NCI-H322M; first compound 2.53 µM,0.856
same,relative viability,NCI-H322M; first compound 8 µM,0.648
same,relative viability,LCLC-97TM1; first compound 0.8 µM,0.291
same,relative viability,LCLC-97TM1; first compound 2.53 µM,0.283
same,relative viability,LCLC-97TM1; first compound 8 µM,0.223
same,relative viability,PC-3 [JPC-3]; first compound 0.08 µM,1.03
same,relative viability,PC-3 [JPC-3]; first compound 0.8 µM,0.988
same,relative viability,PC-3 [JPC-3]; first compound 2.53 µM,1.08
same,relative viability,PC-3 [JPC-3]; first compound 8 µM,1.05
same,relative viability,LXF-289; first compound 0.08 µM,1.03
same,relative viability,LXF-289; first compound 0.8 µM,1.07
same,relative viability,LXF-289; first compound 2.53 µM,1.08
same,relative viability,LXF-289; first compound 8 µM,1.13
same,relative viability,NCI-H460; first compound 0.08 µM,0.448
same,relative viability,NCI-H460; first compound 0.8 µM,0.574
same,relative viability,NCI-H460; first compound 2.53 µM,0.698
same,relative viability,NCI-H460; first compound 8 µM,0.517
same,relative viability,NCI-H2023; first compound 0.08 µM,0.708
same,relative viability,NCI-H2023; first compound 0.8 µM,0.532
same,relative viability,NCI-H2023; first compound 2.53 µM,0.651
same,relative viability,NCI-H2023; first compound 8 µM,0.639
same,relative viability,LU99A; first compound 0.08 µM,0.558
same,relative viability,LU99A; first compound 0.8 µM,0.533
same,relative viability,LU99A; first compound 2.53 µM,0.561
same,relative viability,LU99A; first compound 8 µM,0.496
same,relative viability,BEN; first compound 0.08 µM,1.09
same,relative viability,BEN; first compound 0.8 µM,1.31
same,relative viability,BEN; first compound 2.53 µM,1.3
same,relative viability,BEN; first compound 8 µM,1.01
same,relative viability,NCI-H1395; first compound 0.08 µM,1.06
same,relative viability,NCI-H1395; first compound 0.8 µM,1.24
same,relative viability,NCI-H1395; first compound 2.53 µM,0.982
same,relative viability,NCI-H1395; first compound 8 µM,1.1
same,relative viability,NCI-H2126; first compound 0.08 µM,0.792
same,relative viability,NCI-H2126; first compound 0.8 µM,0.743
same,relative viability,NCI-H2126; first compound 2.53 µM,0.799
same,relative viability,NCI-H2126; first compound 8 µM,0.748
same,relative viability,NCI-H1666; first compound 0.08 µM,1.01
same,relative viability,NCI-H1666; first compound 0.8 µM,1.09
same,relative viability,NCI-H1666; first compound 2.53 µM,1.05
same,relative viability,NCI-H1666; first compound 8 µM,0.955
same,relative viability,LOU-NH91; first compound 0.08 µM,0.771
same,relative viability,LOU-NH91; first compound 0.8 µM,0.904
same,relative viability,LOU-NH91; first compound 2.53 µM,0.862
same,relative viability,LOU-NH91; first compound 8 µM,0.709
